Several values for one entry are separate records, joined by “and”; a condition that tells them apart may be missing. Equal entries are not always repeated.

One experiment relates to bovine mastitis. The settings on record: recent reports (Poutrel 1978; Postle et al. 1979); cited from earlier work.
Another experiment deals with S. aureus. The experiment can be described thus: Experimental mouse mastitis: intramammary antibiotic therapy 4 h after S. aureus inoculation, viable bacterial count per gland 18 h later. The class given is in vivo. The settings on record: for 22 h bacterial counts (log10 cfu/gland) (18 h after treatment), x̄: group mean of five mice; for 22 h bacterial counts (log10 cfu/gland) (18 h after treatment): individual mice, intramammary, 4 h after infection. The method, then: Lactating mice of the Compton white strain were used 4-7 days after parturition. The mice were anaesthetised with ether and c.10^6 cfu S. aureus were inoculated via the teat into the fourth mammary gland on each side (R4 and L4) by the method described by Anderson [Zentralblatt fur Bakteriologie, Parasitenkunde, Infektionskrankheiten und Hygiene (Abteilung 1) Suppl. 5 783-790].
4 Hours later, the mice were divided into four groups and each group received inoculations into R4 and L4 of either cloxacillin, rifampicin, cloxacillin and rifampicin, or saline. After a further 18 hours, the mice were killed. From each mouse, L4 was removed and homogenised in a Griffith's tube with 5 ml sterile saline, and a total viable bacterial count was determined using ox blood agar plates pretreated with S-lactamase.
The log10 bacterial viable counts per gland found after antibiotic (or saline) therapy in each experiment were examined by analysis of variance. Differences between each pair of treatments were then compared for significance in Student's 't' tests, using the value of the.mean square for error obtained in the analysis of variance. Antibiotic residues. Each gland homogenate was also assayed for antibiotic content using an agar well diffusion method with penassay seed agar (Antibiotic medium 1, Difco Labs., Detroit) and Sarcina lutea as the test organism.
Similar treatment to that described above was carried out on mice, in which cloxacillin was replaced by flucloxacillin.
Antibiotics inoculated into mammary glands 4 h after infection at a dose of 1 mg cloxacillin or […] rifampici per gland, or both.

In experiment [1] the test system is staphylococcal mastitis infections. The experiment can be described thus: Bovine mastitis: intramammary infusion in lactating cows, clinical and bacteriological response at 4 and 7 days after treatment. The format is in vivo, staphylococci. Here is the method: Twenty one staphylococcal mastitis infections were treated as follows:
Ten infections treated with 3 x 12 hr infusions of a combination of 300 mg Rifampicin and 200 mg Cloxacillin.
Eleven infections treated with 3 x 12 hr infusions of 200 mg Cloxacillin.
The treatment was carried out by intramammary infusion in lactating cows, and the clinical and bacteriological response recorded at 4 and 7 days after treatment.

Where [2] appears, read: lactating cows, 3 x 12 hr infusions of 300 mg Rifampicin and 200 mg Cloxacillin, or of 200 mg Cloxacillin.

Regarding `CO[C@H]1/C=C/O[C@@]2(C)Oc3c(C)c([O-])c4c(O)c(cc(O)c4c3C2=O)NC(=O)/C(C)=C\C=C\[C@H](C)[C@H](O)[C@@H](C)[C@@H](O)[C@@H](C)[C@H](OC(C)=O)[C@@H]1C.[Na+]` [rifamycin-S.V.], the “effectiveness of therapy in bovine mastitis” value in the experiment on bovine mastitis is “less effective than penicillin based preparations”.

`CO[C@H]1/C=C/O[C@@]2(C)Oc3c(C)c(O)c4c(O)c(c(/C=N/N5CCN(C)CC5)c(O)c4c3C2=O)NC(=O)/C(C)=C\C=C\[C@H](C)[C@H](O)[C@@H](C)[C@@H](O)[C@@H](C)[C@H](OC(C)=O)[C@@H]1C` [Rifampicin, rifampicin]: in the experiment with S. aureus (Rifampicin 25 µg per gland), the “22 h bacterial counts (log10 cfu/gland) (18 h after treatment), x̄” value is listed as 4.837 log10 cfu/gland; the “22 h bacterial counts (log10 cfu/gland) (18 h after treatment)” value is 5.694 log10 cfu/gland and 4.581 log10 cfu/gland and 5.536 log10 cfu/gland and 4.258 log10 cfu/gland and 4.118 log10 cfu/gland.

On to `Cc1onc(-c2ccccc2Cl)c1C(=O)N[C@@H]1C(=O)N2[C@@H]1SC(C)(C)[C@@H]2C(=O)O` [Cloxacillin, cloxacillin], for which the “quarters with raised cell counts” value in experiment [1] (four days after treatment, eight out of eleven raised before) is recorded as “five”. In addition, the quarters yielding staphylococci entry is listed as “five” in experiment [1] (four days after treatment, eleven infections treated) and “six” in experiment [1] (seven days after treatment, combination ten quarters, cloxacillin alone eleven). The “Proportion of quarters cured four days after treatment” value in experiment [1] (setting [2]) is recorded as 6 out of 11. Further, the “Proportion of quarters cured seven days after treatment” value in experiment [1] (setting [2]) is on record as 5 out of 11. For the same molecule, the “mean viable bacterial counts per gland, comparison between groups” value in the experiment with S. aureus (M60 S. aureus, cloxacillin/rifampicin experiment, 1 mg cloxacillin or rifampici per gland, or both, 18 h after therapy, P<0.01) is “reduced bacterial counts to a significantly greater extend than rifampicin treatment”.

In the case of `Cc1onc(-c2c(F)cccc2Cl)c1C(=O)N[C@@H]1C(=O)N2[C@@H]1SC(C)(C)[C@@H]2C(=O)O` [Fluclox, flucloxacillin], in the experiment with S. aureus (Fluclox 1 mg per gland), the “22 h bacterial counts (log10 cfu/gland) (18 h after treatment), x̄” value is 4.403 log10 cfu/gland; the “22 h bacterial counts (log10 cfu/gland) (18 h after treatment)” value is 4.243 log10 cfu/gland and 4.796 log10 cfu/gland and 4.158 log10 cfu/gland and 4.340 log10 cfu/gland and 4.477 log10 cfu/gland.

These data come from patent publication EP0058015A2, “Treatment of infections” (BEECHAM GROUP PLC, priority 1981, dated 1982).
